Laboratory results: patent US20230085307A1, “PYRIDAZINONE COMPOUND AND HERBICIDE” (NISSAN CHEMICAL CORPORATION, priority 2019, published 2023)

Key:
[1] = test system: chickweed; experiment: Test Example 4: herbicidal effect by soil treatment (Table 19, symbol P); type: in vivo, common chickweed (Stellaria media); details: amount of applied herbicide 320 g/ha
Method in brief: (§1)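 In this soil treatment, the formulated compound reached the seeds only through the soil: seeds were buried about 1.5 cm deep in sterilized diluvial soil, then the diluted emulsion was sprayed over the surface. After three weeks at 25° C. to 30° C. in a greenhouse, effects were graded on criteria from an earlier test.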

[2] = test system: late watergrass; experiment: Test Example 1: herbicidal activity, application before weed generation under submerged conditions (Table 16, symbol A); type: in vivo, late watergrass (Echinochloa oryzicola); details: amount of applied herbicide 320 g/ha
Method in brief: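 Submerged Wagner pots (alluvial soil, 4 cm water) sown with weed seeds and planted with 2.5-leaf rice seedlings; emulsifiable concentrate diluted in water applied to water surface on sowing day. Held in greenhouse at 25-30 °C; injury scored 0-5 by herbicidal rate after three weeks.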

[3] = test system: Italian ryegrass; experiment: Test Example 4: herbicidal effect by soil treatment (Table 19, symbol K); type: in vivo, Italian ryegrass (Lolium multiflorum); details: amount of applied herbicide 320 g/ha
Method in brief: as §1

[4] = test system: blackgrass; experiment: Test Example 5: herbicidal effect by foliage application, plastic box (Table 20, symbol J); type: in vivo, blackgrass (Alopecurus myosuroides); details: for herbicidal effect on blackgrass (J): foliage application, three weeks after application
Method in brief: (§2)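 Plants were sown into sterilized diluvial soil under about 1.5 cm cover and kept in a greenhouse at 25° C. to 30° C. Fourteen days on, foliage received an even spray of the diluted emulsion. Herbicidal or crop effect was judged three weeks afterwards.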

[5] = test system: southern crabgrass; experiment: Test Example 5: herbicidal effect by foliage application, plastic box (Table 20, symbol F); type: in vivo, southern crabgrass (Digitaria ciliaris); details: for herbicidal effect on southern crabgrass (F): foliage application, three weeks after application
Method in brief: as §2

[6] = test system: persian speedwell; experiment: Test Example 4: herbicidal effect by soil treatment (Table 19, symbol R); type: in vivo, Persian speedwell (Veronica persica); details: amount of applied herbicide 320 g/ha
Method in brief: as §1

[7] = test system: chickweed; experiment: Test Example 5: herbicidal effect by foliage application, plastic box (Table 20, symbol P); type: in vivo, common chickweed (Stellaria media); details: foliage application after 14-day growth, evaluated three weeks after application
Method in brief: as §2

[8] = test system: false cleavers; experiment: Test Example 4: herbicidal effect by soil treatment (Table 19, symbol Q); type: in vivo, false cleavers (Galium spurium); details: amount of applied herbicide 320 g/ha
Method in brief: as §1

[9] = test system: oval-leafed pondweed; experiment: Test Example 2: herbicidal activity, application during weed generation under submerged conditions (Table 17, symbol C); type: in vivo, oval-leafed pondweed (Monochoria vaginalis); details: AAH 320 g/ha; application during weed generation, submerged conditions
Method in brief: (§3)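 Effect on each weed is rated three weeks post-treatment, using the same scoring criteria as the preceding test. Plants grow from mixed-sown seed in flooded alluvial soil (4 cm water) at 25° C. to 30° C., and are treated at one to two leaves with diluted emulsion dropped onto the water.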

[10] = test system: blackgrass; experiment: Test Example 4: herbicidal effect by soil treatment (Table 19, symbol J); type: in vivo, blackgrass (Alopecurus myosuroides); details: amount of applied herbicide 320 g/ha
Method in brief: as §1

[11] = test system: late watergrass; experiment: Test Example 2: herbicidal activity, application during weed generation under submerged conditions (Table 17, symbol A); type: in vivo, late watergrass (Echinochloa oryzicola); details: AAH 320 g/ha; application during weed generation, submerged conditions
Method in brief: as §3

[12] = test system: redroot pigweed; experiment: Test Example 5: herbicidal effect by foliage application, plastic box (Table 20, symbol N); type: in vivo, redroot pigweed (Amaranthus retroflexus); details: foliage application after 14-day growth, evaluated three weeks after application
Method in brief: as §2

[13] = test system: Italian ryegrass; experiment: Test Example 5: herbicidal effect by foliage application, plastic box (Table 20, symbol K); type: in vivo, Italian ryegrass (Lolium multiflorum); details: for herbicidal effect on Italian ryegrass (K): foliage application, three weeks after application
Method in brief: as §2

[14] = test system: lambsquarters; experiment: Test Example 4: herbicidal effect by soil treatment (Table 19, symbol O); type: in vivo, lambsquarters (Chenopodium album); details: amount of applied herbicide 320 g/ha
Method in brief: as §1

[15] = test system: wild oat; experiment: Test Example 4: herbicidal effect by soil treatment (Table 19, symbol I); type: in vivo, wild oat (Avena fatua); details: amount of applied herbicide 320 g/ha
Method in brief: as §1

[16] = test system: Japanese bulrush; experiment: Test Example 2: herbicidal activity, application during weed generation under submerged conditions (Table 17, symbol B); type: in vivo, Japanese bulrush (Schoenoplectus juncoides); details: AAH 320 g/ha; application during weed generation, submerged conditions
Method in brief: as §3

[17] = test system: velvetleaf; experiment: Test Example 5: herbicidal effect by foliage application, plastic box (Table 20, symbol M); type: in vivo, velvetleaf (Abutilon theophrasti); details: for herbicidal effect on velvetleaf (M): foliage application, three weeks after application
Method in brief: as §2

[18] = 320 g/ha, foliage application after 14-day growth, evaluated three weeks after application
[19] = amount of applied herbicide 320 g/ha, foliage application after 14-day growth, evaluated three weeks after application
[20] = amount of applied herbicide 320 g/ha

SMILES	Herbicidal effect by soil treatment, P: chickweed [1]	Herbicidal effect, A: late watergrass [2]	Herbicidal effect by soil treatment, K: Italian ryegrass [3]	Herbicidal effect by soil treatment, R: persian speedwell [6]	Herbicidal effect by soil treatment, Q: false cleavers [8]	herbicidal effect rating, C: oval-leafed pondweed [9]	Herbicidal effect by soil treatment, J: blackgrass [10]	herbicidal effect rating, A: late watergrass [11]	Herbicidal effect by soil treatment, O: lambsquarters [14]	Herbicidal effect by soil treatment, I: wild oat [15]	herbicidal effect rating, B: Japanese bulrush [16]	P: chickweed, herbicidal effect grade [1]	K: Italian ryegrass, herbicidal effect grade [3]	herbicidal effect on blackgrass (J) ([4]; 320 g/ha)	herbicidal effect on southern crabgrass (F) ([5]; 320 g/ha)	R: persian speedwell, herbicidal effect grade [6]	Q: false cleavers, herbicidal effect grade [8]	J: blackgrass, herbicidal effect grade [10]	herbicidal effect on Italian ryegrass (K) ([13]; 320 g/ha)	O: lambsquarters, herbicidal effect grade [14]	other results
Cc1nn(C)c(=O)c(-c2c(-c3ccc(Cl)c(F)c3)sc3c(F)cccc23)c1O [4-054]	4 (Herbicidal rate of 70% or more and less than 90%)	3 (Herbicidal rate of 40% or more and less than 70%)	0 (Herbicidal rate of 5% or less (almost no effect))	4 (Herbicidal rate of 70% or more and less than 90%)	0 (Herbicidal rate of 5% or less (almost no effect))	0 (Herbicidal rate of 5% or less (almost no effect))	0 (Herbicidal rate of 5% or less (almost no effect))	2 (Herbicidal rate of 20% or more and less than 40%)	1 (Herbicidal rate of 5% or more and less than 20%)	0 (Herbicidal rate of 5% or less (almost no effect))	2 (Herbicidal rate of 20% or more and less than 40%)										herbicidal effect on J: blackgrass (evaluation grade 0-5) [4, 18]: 0 (Herbicidal rate of 5% or less (almost no effect)); herbicidal effect on F: southern crabgrass (evaluation grade 0-5) [5, 18]: 2 (Herbicidal rate of 20% or more and less than 40%); herbicidal effect on P: chickweed (evaluation grade 0-5) ([7]; 320 g/ha): 5 (Herbicidal rate of 90% or more (almost completely withered)); herbicidal effect on N: redroot pigweed (evaluation grade 0-5) ([12]; 320 g/ha): 5 (Herbicidal rate of 90% or more (almost completely withered)); herbicidal effect on K: Italian ryegrass (evaluation grade 0-5) [13, 18]: 1 (Herbicidal rate of 5% or more and less than 20%); herbicidal effect on M: velvetleaf (evaluation grade 0-5) [17, 18]: 5 (Herbicidal rate of 90% or more (almost completely withered))
Cc1nn(C)c(=O)c(-c2c(-c3ccc(Cl)cc3)sc3c(C)cccc23)c1O [4-102]	0 (Herbicidal rate of 5% or less (almost no effect))	4 (Herbicidal rate of 70% or more and less than 90%)	3 (Herbicidal rate of 40% or more and less than 70%)	0 (Herbicidal rate of 5% or less (almost no effect))	0 (Herbicidal rate of 5% or less (almost no effect))	0 (Herbicidal rate of 5% or less (almost no effect))	0 (Herbicidal rate of 5% or less (almost no effect))	2 (Herbicidal rate of 20% or more and less than 40%)	3 (Herbicidal rate of 40% or more and less than 70%)	0 (Herbicidal rate of 5% or less (almost no effect))	0 (Herbicidal rate of 5% or less (almost no effect))										Herbicidal effect by foliage application, J: blackgrass [4, 19]: 0 (Herbicidal rate of 5% or less (almost no effect)); Herbicidal effect by foliage application, F: southern crabgrass [5, 19]: 0 (Herbicidal rate of 5% or less (almost no effect)); Herbicidal effect by foliage application, P: chickweed [7, 20]: 5 (Herbicidal rate of 90% or more (almost completely withered)); Herbicidal effect by foliage application, N: redroot pigweed [12, 20]: 5 (Herbicidal rate of 90% or more (almost completely withered)); Herbicidal effect by foliage application, K: Italian ryegrass [13, 19]: 4 (Herbicidal rate of 70% or more and less than 90%); Herbicidal effect by foliage application, M: velvetleaf [17, 19]: 5 (Herbicidal rate of 90% or more (almost completely withered))
Cc1nn(C)c(=O)c(-c2c(-c3ccc(OC(C)C)cc3)oc3ccc(F)cc23)c1O [9-025]		5 (Herbicidal rate of 90% or more (almost completely withered))				4 (Herbicidal rate of 70% or more and less than 90%)		4 (Herbicidal rate of 70% or more and less than 90%)			3 (Herbicidal rate of 40% or more and less than 70%)	0 (Herbicidal rate of 5% or less (almost no effect))	5 (Herbicidal rate of 90% or more (almost completely withered))	4 (Herbicidal rate of 70% or more and less than 90%)	5 (Herbicidal rate of 90% or more (almost completely withered))	4 (Herbicidal rate of 70% or more and less than 90%)	0 (Herbicidal rate of 5% or less (almost no effect))	3 (Herbicidal rate of 40% or more and less than 70%)	5 (Herbicidal rate of 90% or more (almost completely withered))	4 (Herbicidal rate of 70% or more and less than 90%)	I: wild oat, herbicidal effect grade [15]: 0 (Herbicidal rate of 5% or less (almost no effect)); herbicidal effect on velvetleaf (M) ([17]; 320 g/ha): 5 (Herbicidal rate of 90% or more (almost completely withered))
Cc1nn(C)c(=O)c(-c2c(-c3ccc(OCC(C)C)cc3)oc3ccc(F)cc23)c1O [9-027]		5 (Herbicidal rate of 90% or more (almost completely withered))				4 (Herbicidal rate of 70% or more and less than 90%)		4 (Herbicidal rate of 70% or more and less than 90%)			3 (Herbicidal rate of 40% or more and less than 70%)	1 (Herbicidal rate of 5% or more and less than 20%)	4 (Herbicidal rate of 70% or more and less than 90%)	5 (Herbicidal rate of 90% or more (almost completely withered))	5 (Herbicidal rate of 90% or more (almost completely withered))	5 (Herbicidal rate of 90% or more (almost completely withered))	0 (Herbicidal rate of 5% or less (almost no effect))	4 (Herbicidal rate of 70% or more and less than 90%)	5 (Herbicidal rate of 90% or more (almost completely withered))	5 (Herbicidal rate of 90% or more (almost completely withered))	I: wild oat, herbicidal effect grade [15]: 0 (Herbicidal rate of 5% or less (almost no effect)); herbicidal effect on velvetleaf (M) ([17]; 320 g/ha): 5 (Herbicidal rate of 90% or more (almost completely withered))
